According to ChEMBL document CHEMBL3217453, “Aminomethyl substituted thieno[2,3-d]pyrimidines as adenosine A2A receptor antagonists” (Medchemcomm, 2011):
Activity calls are given as the source filed them. No cut-off for these calls is given here.

Experiments:
[1] = tested on: Mus musculus; assay: Reversal of haloperidol-induced catalepsy in balb/c mouse at 10 mg/kg, po compound administered 30 mins post challenge; type: functional
[2] = biological target: T1, Adenosine receptor A1 (Homo sapiens, UniProt P30542); assay: Antagonist activity at human adenosine A1 receptor expressed in CHO-K1 cells preincubated for 15 mins before r-PIA addition measured after 5.5 to 6 hrs by beta-galactosidase reporter gene assay; type: cell-based
T1 sequence (P30542 whole entry): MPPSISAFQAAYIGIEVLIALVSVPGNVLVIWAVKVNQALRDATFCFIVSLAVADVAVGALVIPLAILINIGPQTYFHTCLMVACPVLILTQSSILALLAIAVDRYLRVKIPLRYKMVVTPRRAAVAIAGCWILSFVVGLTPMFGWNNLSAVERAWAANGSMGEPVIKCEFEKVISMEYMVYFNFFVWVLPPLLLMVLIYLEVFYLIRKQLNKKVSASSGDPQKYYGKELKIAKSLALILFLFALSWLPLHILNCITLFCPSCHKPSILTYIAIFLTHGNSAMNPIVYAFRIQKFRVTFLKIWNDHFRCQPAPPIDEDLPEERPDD

[3] = biological target: Adenosine receptor A2a (Homo sapiens, UniProt P29274); assay: Antagonist activity at human adenosine A2A receptor expressed in CHO-K1 cells preincubated for 15 mins before NECA addition measured after 5.5 to 6 hrs by beta-galactosidase reporter gene assay; type: functional, cell-based
Chain of Adenosine receptor A2a (P29274 whole entry): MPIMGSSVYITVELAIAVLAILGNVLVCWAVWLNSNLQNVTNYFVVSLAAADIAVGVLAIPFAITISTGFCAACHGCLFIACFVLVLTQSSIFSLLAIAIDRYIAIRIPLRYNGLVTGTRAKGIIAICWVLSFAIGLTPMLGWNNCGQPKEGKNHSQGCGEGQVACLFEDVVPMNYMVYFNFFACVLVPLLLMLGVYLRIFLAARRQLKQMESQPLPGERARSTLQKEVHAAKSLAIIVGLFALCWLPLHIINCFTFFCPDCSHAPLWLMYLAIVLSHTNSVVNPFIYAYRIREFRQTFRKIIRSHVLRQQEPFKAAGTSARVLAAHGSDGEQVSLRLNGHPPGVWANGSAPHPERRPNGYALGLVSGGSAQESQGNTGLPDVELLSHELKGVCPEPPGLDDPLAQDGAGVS

[4] = tested on: Mus musculus; assay: Reversal of haloperidol-induced catalepsy in po dosed balb/c mouse compound administered 30 mins post challenge; type: functional; settings: 0.5 h

Row | Structure (SMILES) | Activity [1] | Ki [2] [nM] | Ki [3] [nM] | ED50 [4] [mg/kg]
1 | Nc1nc(-c2ccco2)nc2sc(CN3CCCC3)cc12 | inactive |  |  | 
2 | Nc1nc(-c2ccc(C3CC3)o2)nc2sc(CN3CCOCC3)cc12 |  | > 1100 |  | 
3 | Nc1nc(-c2ccco2)nc2sc(CNC3CC3)cc12 | inactive |  |  | 
4 | CN(C)Cc1cc2c(N)nc(-c3ccco3)nc2s1 |  |  | 140 | 
5 | Cc1csc(-c2nc(N)c3cc(CN4CCOCC4)sc3n2)n1 |  | > 930 |  | 
6 | N#Cc1cccc(-c2nc(N)c3cc(CN4CCCC(F)(F)C4)sc3n2)c1 |  | 840 | 39 | < 1
7 | Nc1nc(-c2ccc(Cl)o2)nc2sc(CN3CCCC(F)(F)C3)cc12 |  | 188 | 9.1 | 
8 | C[C@@H]1CCC[C@H](C)N1Cc1cc2c(N)nc(-c3ccc(C(F)F)o3)nc2s1 | inactive |  | 28.6 | 
9 | Nc1nc(-c2ccco2)nc2sc(CNC3CCCCC3)cc12 |  |  | 170 | 
10 | Nc1nc(-c2ncco2)nc2sc(CN3CC=CC3)cc12 |  | 3890 | 240 | 
11 | Nc1nc(-c2cccc(C(F)(F)F)c2)nc2sc(CN3CC=CC3)cc12 |  | 2960 |  | 
12 | Nc1nc(-c2ccco2)nc2sc(CN3CCC(F)C3)cc12 (stereo unspecified) | inactive |  | 10.3 | 
13 | Nc1nc(-c2ccco2)nc2sc(CN3CCSCC3)cc12 |  | 369 | 9.2 | 3.2
14 | CC(C)c1ccc(-c2nc(N)c3cc(CN4[C@H](C)CCC[C@@H]4C)sc3n2)o1 | inactive | 140 | 17 | 
15 | Nc1nc(-c2ccco2)nc2sc(CN3CCC(F)(F)CC3)cc12 |  |  | 49.6 | 
16 | Nc1nc(-c2ccccc2)nc2sc(CN3CCOCC3)cc12 |  | > 5000 | 995 | 
17 | Nc1nc(-c2ccc(C(F)F)o2)nc2sc(CN3CCOCC3)cc12 | inactive |  |  | 
18 | Nc1nc(-c2ncco2)nc2sc(CN3CC=CCC3)cc12 |  | 2960 | 240 | 
19 | Nc1nc(-c2ccc(C(F)(F)F)cc2)nc2sc(CN3CCC(F)CC3)cc12 |  | 3560 | > 10000 | 
20 | Nc1nc(-c2ccc(Cl)o2)nc2sc(CN3CCC(F)CC3)cc12 |  |  | 36.7 | 

Row | Structure (SMILES) | Activity [1] | Ki [2] [nM] | Ki [3] [nM] | ED50 [4] [mg/kg]
21 | Nc1nc(-c2ccc(Cl)o2)nc2sc(CN3CCC(F)(F)C3)cc12 |  | 245 | 15.9 | 
22 | Nc1nc(-c2ccc(Cl)o2)nc2sc(CN3CC=CCC3)cc12 |  | 190 | 11 | 
23 | C[C@@H]1CCC[C@H](C)N1Cc1cc2c(N)nc(-c3ccco3)nc2s1 |  |  | 5.3 | 
24 | Nc1nc(-c2cccs2)nc2sc(CN3CCCC3)cc12 |  | > 10000 | 110 | 
25 | Nc1nc(-c2ccco2)nc2sc(CN3CCOCC3)cc12 |  | 1680 | 29 | 1.3
26 | N#Cc1cccc(-c2nc(N)c3cc(CN4CCC(F)CC4)sc3n2)c1 |  |  | 54.4 | < 1
27 | Nc1nc(-c2ccc(Cl)o2)nc2sc(CN3CC=CC3)cc12 | inactive |  | 10 | 
28 | Nc1nc(-c2ccco2)nc2sc(CN3CCC(F)(F)C3)cc12 |  |  | 8.7 | 10
29 | Nc1nc(-c2nccs2)nc2sc(CN3CCOCC3)cc12 |  |  | 250 | 
30 | Nc1nc(-c2ccco2)nc2sc(CN3CC=CCC3)cc12 |  | 150 | 6.5 | < 3
31 | CS(=O)(=O)c1cccc(-c2nc(N)c3cc(CN4CCC(F)CC4)sc3n2)c1 |  | > 10000 | > 10000 | 
32 | Nc1nc(-c2ccc(Cl)o2)nc2sc(CN3CCCC3)cc12 | inactive |  |  | 
33 | C[C@@H]1CCC[C@H](C)N1Cc1cc2c(N)nc(-c3ccc(Br)o3)nc2s1 |  | 40.2 |  | 
34 | Nc1nc(-c2cccc(C(F)(F)F)c2)nc2sc(CN3CCC(F)CC3)cc12 |  | 3030 | > 10000 | 
35 | Nc1nc(-c2ccco2)nc2sc(CN3CC=CC3)cc12 |  | 290 | 7.2 | < 0.1
36 | CN(C)C(=O)c1cccc(-c2nc(N)c3cc(CN4CCC(F)CC4)sc3n2)c1 |  | > 10000 | 2250 | 
37 | Cc1ccc(-c2nc(N)c3cc(CN4CCCCC4)sc3n2)o1 | inactive |  | 28.8 | 
38 | CC(C)c1ccc(-c2nc(N)c3cc(CN4CCOCC4)sc3n2)o1 |  | > 600 | > 1360 | 
39 | Nc1nc(-c2ccc(Br)o2)nc2sc(CN3CCCC3)cc12 | inactive | 710 | 22.5 | 
40 | Nc1nc(-c2ccco2)nc2sc(CN3CCCCCC3)cc12 |  | 1170 | 27.6 | 

Row | Structure (SMILES) | Activity [1] | Ki [2] [nM] | Ki [3] [nM] | ED50 [4] [mg/kg]
41 | Nc1nc(-c2ccc(Cl)o2)nc2sc(CN3CCOCC3)cc12 |  | 640 | 45.4 | 
42 | Nc1nc(-c2ccccc2C(F)(F)F)nc2sc(CN3CCC(F)CC3)cc12 |  | > 10000 | > 10000 | 
43 | N#Cc1ccc(-c2nc(N)c3cc(CN4CC=CCC4)sc3n2)cc1 |  |  | 180 | 
44 | Nc1nc(-c2cccc(F)c2)nc2sc(CN3CCOCC3)cc12 |  |  | 110 | 
45 | Nc1nc(-c2ccc(C(F)F)o2)nc2sc(CN3CCCC(F)(F)C3)cc12 |  |  | 43.2 | 
46 | CCc1ccc(-c2nc(N)c3cc(CN4CCOCC4)sc3n2)o1 |  | > 610 |  | 
47 | Nc1nc(-c2ccco2)nc2sc(CN3CCC(F)CC3)cc12 |  |  | 19.7 | < 1
48 | Cc1ccc(-c2nc(N)c3cc(CN4CCCC4)sc3n2)o1 | inactive |  |  | 
49 | CCc1ccc(-c2nc(N)c3cc(CN4[C@H](C)CCC[C@@H]4C)sc3n2)o1 |  | 190 | 25.2 | 
50 | Nc1nc(-c2cccc(Cl)c2)nc2sc(CN3CCOCC3)cc12 |  |  | 120 | 
51 | N#Cc1ccc(-c2nc(N)c3cc(CN4CCC(F)CC4)sc3n2)cc1 |  |  | 390 | 
52 | Nc1nc(-c2ccc(Br)o2)nc2sc(CN3CCOCC3)cc12 |  | 725 | 30 | 
53 | Nc1nc(-c2ccco2)nc2sc(CN3CCCC(F)(F)C3)cc12 |  | 290 |  | < 1
54 | N#Cc1cccc(-c2nc(N)c3cc(CN4CCSCC4)sc3n2)c1 |  | 980 | 50.9 | 
55 | N#Cc1cccc(-c2nc(N)c3cc(CN4CCOCC4)sc3n2)c1 |  |  |  | < 1
56 | N#Cc1cccc(-c2nc(N)c3cc(CN4CCCC4)sc3n2)c1 |  |  | > 10000 | 
57 | C[C@@H]1CCC[C@H](C)N1Cc1cc2c(N)nc(-c3ccc(C4CC4)o3)nc2s1 |  |  | 110 | 
58 | Nc1nc(-c2cccc([N+](=O)[O-])c2)nc2sc(CN3CCC(F)CC3)cc12 |  | > 10000 | 3760 | 
59 | Nc1nc(-c2cccs2)nc2sc(CN3CCOCC3)cc12 |  | 1020 | 125 | 
